Data published in US10011571B2, “Preparation method for aromatic heterocyclic compound used as selective JAK3 and/or JAK1 kinase inhibitor and application of aromatic heterocyclic compound” (SHENZHEN CHIPSCREEN BIOSCIENCES, LTD., priority 2014, dated 2018).

Tests used:
Assay type in all cases: biochemical
JAK2 = JAK2 (Homo sapiens (Human), UniProt O60674); test: Eurofins IC50Profiler radiometric kinase assay, JAK2; conditions: 9 semilog concentrations
Source text: (§1) A proportion of the compounds of the present invention are subjected to kinase profile screening (KinaseProfiler™)) and enzymatic inhibitory activity (IC50Profiler™)) assay by entrusting Eurofins company (http://www.eurofins.com). Besides the kinases in the JAK family, the kinases that have been screened for their activity also include most Group 3F and Group 4 kinases (ITK, BLK, TBK1, VEGFRs, ERBBs, etc.), and blood system related kinases (Zhang J. et al. 2009, Nat. Rev. Cancer., 9: 28-39). The concentration of the test compound for kinase profile screening is 1 μM, and a gradient of 9 semilog concentration gradients are used to determine IC50. Detection is carried out according to standard procedure of Eurofins Company. Briefly, according to the requirements of different kinase reactions, 0.2 μL test compound (50 μM, dissolved in dimethyl sulfoxide (DMSO)) is added to reaction buffer containing specific kinase (the buffer system containing 20 mM MOPS, 1 mM EDTA, 0.01% Brij-35, 5% Glycerol, 0.1% β-mercaptoethanol, 1 mg/mL BSA, or 50 mM TRIS, 0.1 mM EGTA, 0.1 mM Na3VO4, 0.1% β-mercaptoethanol, 1 mg/mL BSA, based on the type of kinase used). Subsequently, a kinase specific substrate at a final concentration of 50 μM (specific substrate used for specific kinase), 10 mM Mg Acetate and isotope-labeled γ-^33P ATP (radio-activity of about 500 cpm/pmol) are sequentially added to a total volume of 10 μL for the reaction system. After incubation at room temperature for 40 min, the reaction is terminated by adding 3% phosphoric acid solution. The mixture is then transferred to a filter-type low temperature spray dryer (P30 filtermat), and washed by 75 mM phosphoric acid solution for 3 times and by methanol once. After drying, radio-activity is detected. For specific procedure, see the standard procedure provided by Eurofins Company: http://www.eurofins.com/media/9724077/kinaseprofiler_assay_protocol_guide_eurofins_v64.pdf).

Flt1 = Flt1 (Homo sapiens (Human), UniProt P17948); test: Eurofins IC50Profiler radiometric kinase assay, Flt1; conditions: 9 semilog concentrations
Source text: as §1

JAK3 [1] = target: T1, JAK3 (Homo sapiens (Human), UniProt P52333); test: Z'-LYTE enzymatic activity detection, JAK3; conditions: test compound 30 nM; for inhibition at 0.03 µM: read-out: JAK3 % inhibitory rate @30 nM
Summary of the method: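 GST-tagged human recombinant kinases with Z′-LYTE peptides (Tyr6 for JAK1, Tyr4 for JAK2 and JAK3), ATP from kit, reacted 1 h at room temperature; development 1 h, ratio 445/520 nm at 400 nm excitation gives phosphorylation. Inhibition vs solvent control at 30 nM (JAK2, JAK3) or 300 nM (JAK1); tofacitinib as positive control.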

Flt4 = Flt4 (Homo sapiens (Human), UniProt P35916); test: Eurofins IC50Profiler radiometric kinase assay, Flt4; conditions: 9 semilog concentrations
Source text: as §1

JAK1 = JAK1 (Homo sapiens (Human), UniProt P23458); test: Eurofins IC50Profiler radiometric kinase assay, JAK1; conditions: 9 semilog concentrations
Source text: as §1

ITK = ITK (Homo sapiens (Human), UniProt Q08881); test: Eurofins IC50Profiler radiometric kinase assay, ITK; conditions: 9 semilog concentrations
Source text: as §1

JAK3 [2] = target: T1, JAK3; test: Eurofins IC50Profiler radiometric kinase assay, JAK3; conditions: 9 semilog concentrations
Source text: as §1

Chain of JAK1 (P23458 whole entry, species assumed): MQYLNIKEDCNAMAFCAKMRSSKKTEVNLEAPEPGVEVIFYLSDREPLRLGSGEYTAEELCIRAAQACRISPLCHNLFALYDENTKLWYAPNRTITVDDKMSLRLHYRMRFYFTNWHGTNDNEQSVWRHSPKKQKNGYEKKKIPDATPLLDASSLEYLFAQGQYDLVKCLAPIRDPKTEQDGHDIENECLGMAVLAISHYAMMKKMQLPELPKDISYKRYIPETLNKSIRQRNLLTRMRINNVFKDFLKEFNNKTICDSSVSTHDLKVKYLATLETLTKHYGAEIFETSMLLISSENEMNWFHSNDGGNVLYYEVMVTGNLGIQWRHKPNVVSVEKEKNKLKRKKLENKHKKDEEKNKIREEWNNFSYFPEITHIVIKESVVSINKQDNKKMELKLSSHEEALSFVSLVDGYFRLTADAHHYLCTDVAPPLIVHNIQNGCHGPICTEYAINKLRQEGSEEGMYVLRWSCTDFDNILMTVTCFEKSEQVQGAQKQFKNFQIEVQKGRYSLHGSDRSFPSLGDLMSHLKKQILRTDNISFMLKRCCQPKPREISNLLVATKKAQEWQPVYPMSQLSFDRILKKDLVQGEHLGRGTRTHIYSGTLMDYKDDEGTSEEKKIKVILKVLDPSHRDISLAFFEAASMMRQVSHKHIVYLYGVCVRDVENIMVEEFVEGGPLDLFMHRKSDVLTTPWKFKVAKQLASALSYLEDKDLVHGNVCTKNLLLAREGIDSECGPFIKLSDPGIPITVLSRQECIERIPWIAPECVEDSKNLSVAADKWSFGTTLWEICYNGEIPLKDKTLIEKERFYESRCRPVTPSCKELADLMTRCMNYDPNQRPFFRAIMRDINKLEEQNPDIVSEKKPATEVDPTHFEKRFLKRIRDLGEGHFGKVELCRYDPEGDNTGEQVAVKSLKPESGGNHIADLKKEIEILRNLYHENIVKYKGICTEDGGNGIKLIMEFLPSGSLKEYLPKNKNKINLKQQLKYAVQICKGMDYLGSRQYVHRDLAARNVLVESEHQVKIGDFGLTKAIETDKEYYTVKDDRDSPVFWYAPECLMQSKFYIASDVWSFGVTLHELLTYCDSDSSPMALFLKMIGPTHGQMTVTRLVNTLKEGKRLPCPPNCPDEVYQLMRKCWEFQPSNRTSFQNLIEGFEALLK
Chain of JAK2 (O60674 whole entry, species assumed): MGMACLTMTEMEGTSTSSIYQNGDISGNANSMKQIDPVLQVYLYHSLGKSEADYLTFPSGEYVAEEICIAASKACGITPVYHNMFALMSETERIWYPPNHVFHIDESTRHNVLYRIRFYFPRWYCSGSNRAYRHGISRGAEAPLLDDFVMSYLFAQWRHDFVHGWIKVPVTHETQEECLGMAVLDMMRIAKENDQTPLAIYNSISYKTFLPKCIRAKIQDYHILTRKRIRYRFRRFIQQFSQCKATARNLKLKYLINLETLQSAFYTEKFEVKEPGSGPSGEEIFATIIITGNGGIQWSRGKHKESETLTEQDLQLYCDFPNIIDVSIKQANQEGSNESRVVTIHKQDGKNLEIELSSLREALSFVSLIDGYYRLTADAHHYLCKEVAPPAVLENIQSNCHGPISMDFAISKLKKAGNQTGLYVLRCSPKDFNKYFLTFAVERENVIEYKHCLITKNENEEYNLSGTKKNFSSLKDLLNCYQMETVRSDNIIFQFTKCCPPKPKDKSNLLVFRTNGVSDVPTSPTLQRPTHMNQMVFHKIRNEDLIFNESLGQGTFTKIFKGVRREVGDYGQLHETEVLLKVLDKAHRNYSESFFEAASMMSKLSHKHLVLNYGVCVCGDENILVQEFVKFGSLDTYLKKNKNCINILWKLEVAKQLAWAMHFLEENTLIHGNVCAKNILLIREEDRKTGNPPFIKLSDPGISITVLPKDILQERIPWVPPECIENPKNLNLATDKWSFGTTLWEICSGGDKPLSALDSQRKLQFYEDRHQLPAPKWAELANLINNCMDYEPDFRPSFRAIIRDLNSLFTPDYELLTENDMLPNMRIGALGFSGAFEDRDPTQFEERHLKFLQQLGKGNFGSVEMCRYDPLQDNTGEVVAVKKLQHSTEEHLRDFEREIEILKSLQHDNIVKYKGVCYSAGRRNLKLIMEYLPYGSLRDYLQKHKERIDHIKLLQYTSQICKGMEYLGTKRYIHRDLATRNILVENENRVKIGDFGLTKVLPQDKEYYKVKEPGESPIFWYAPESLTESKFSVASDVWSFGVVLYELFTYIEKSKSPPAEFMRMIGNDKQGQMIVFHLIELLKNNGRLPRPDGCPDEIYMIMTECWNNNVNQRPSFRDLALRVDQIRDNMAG
Chain of Flt1 (P17948 27-1338, species assumed): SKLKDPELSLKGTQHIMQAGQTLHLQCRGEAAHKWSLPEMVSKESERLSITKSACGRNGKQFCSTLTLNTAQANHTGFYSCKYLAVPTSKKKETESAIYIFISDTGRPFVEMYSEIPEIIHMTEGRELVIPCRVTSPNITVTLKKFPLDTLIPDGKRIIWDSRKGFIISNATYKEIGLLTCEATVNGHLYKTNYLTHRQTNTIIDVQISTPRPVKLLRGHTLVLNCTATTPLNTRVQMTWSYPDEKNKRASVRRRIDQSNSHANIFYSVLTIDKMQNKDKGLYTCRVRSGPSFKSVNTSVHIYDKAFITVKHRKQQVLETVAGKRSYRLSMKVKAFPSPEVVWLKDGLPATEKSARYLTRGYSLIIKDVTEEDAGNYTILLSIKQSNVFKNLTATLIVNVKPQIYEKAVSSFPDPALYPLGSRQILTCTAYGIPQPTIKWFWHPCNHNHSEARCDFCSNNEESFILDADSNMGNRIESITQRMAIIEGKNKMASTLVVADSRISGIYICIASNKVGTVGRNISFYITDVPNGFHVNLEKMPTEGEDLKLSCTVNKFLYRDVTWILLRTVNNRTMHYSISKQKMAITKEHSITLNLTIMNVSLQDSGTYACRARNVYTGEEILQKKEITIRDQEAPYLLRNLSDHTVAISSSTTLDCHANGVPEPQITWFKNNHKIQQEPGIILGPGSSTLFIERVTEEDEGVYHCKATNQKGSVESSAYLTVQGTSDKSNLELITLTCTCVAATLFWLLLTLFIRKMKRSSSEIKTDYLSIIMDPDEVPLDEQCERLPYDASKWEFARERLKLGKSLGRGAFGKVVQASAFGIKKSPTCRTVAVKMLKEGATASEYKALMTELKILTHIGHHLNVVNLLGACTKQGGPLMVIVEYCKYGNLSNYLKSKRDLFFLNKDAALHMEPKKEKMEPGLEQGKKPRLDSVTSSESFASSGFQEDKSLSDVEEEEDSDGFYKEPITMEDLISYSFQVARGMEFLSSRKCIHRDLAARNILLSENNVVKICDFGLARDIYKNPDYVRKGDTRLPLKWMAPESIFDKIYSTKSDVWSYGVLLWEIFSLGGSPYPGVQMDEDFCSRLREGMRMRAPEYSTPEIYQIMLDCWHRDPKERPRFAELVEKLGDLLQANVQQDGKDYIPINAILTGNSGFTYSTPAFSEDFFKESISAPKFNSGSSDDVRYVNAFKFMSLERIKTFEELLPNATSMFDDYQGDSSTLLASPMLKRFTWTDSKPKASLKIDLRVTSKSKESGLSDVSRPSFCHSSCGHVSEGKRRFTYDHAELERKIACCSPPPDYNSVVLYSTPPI
Chain of Flt4 (P35916 25-1363, species assumed): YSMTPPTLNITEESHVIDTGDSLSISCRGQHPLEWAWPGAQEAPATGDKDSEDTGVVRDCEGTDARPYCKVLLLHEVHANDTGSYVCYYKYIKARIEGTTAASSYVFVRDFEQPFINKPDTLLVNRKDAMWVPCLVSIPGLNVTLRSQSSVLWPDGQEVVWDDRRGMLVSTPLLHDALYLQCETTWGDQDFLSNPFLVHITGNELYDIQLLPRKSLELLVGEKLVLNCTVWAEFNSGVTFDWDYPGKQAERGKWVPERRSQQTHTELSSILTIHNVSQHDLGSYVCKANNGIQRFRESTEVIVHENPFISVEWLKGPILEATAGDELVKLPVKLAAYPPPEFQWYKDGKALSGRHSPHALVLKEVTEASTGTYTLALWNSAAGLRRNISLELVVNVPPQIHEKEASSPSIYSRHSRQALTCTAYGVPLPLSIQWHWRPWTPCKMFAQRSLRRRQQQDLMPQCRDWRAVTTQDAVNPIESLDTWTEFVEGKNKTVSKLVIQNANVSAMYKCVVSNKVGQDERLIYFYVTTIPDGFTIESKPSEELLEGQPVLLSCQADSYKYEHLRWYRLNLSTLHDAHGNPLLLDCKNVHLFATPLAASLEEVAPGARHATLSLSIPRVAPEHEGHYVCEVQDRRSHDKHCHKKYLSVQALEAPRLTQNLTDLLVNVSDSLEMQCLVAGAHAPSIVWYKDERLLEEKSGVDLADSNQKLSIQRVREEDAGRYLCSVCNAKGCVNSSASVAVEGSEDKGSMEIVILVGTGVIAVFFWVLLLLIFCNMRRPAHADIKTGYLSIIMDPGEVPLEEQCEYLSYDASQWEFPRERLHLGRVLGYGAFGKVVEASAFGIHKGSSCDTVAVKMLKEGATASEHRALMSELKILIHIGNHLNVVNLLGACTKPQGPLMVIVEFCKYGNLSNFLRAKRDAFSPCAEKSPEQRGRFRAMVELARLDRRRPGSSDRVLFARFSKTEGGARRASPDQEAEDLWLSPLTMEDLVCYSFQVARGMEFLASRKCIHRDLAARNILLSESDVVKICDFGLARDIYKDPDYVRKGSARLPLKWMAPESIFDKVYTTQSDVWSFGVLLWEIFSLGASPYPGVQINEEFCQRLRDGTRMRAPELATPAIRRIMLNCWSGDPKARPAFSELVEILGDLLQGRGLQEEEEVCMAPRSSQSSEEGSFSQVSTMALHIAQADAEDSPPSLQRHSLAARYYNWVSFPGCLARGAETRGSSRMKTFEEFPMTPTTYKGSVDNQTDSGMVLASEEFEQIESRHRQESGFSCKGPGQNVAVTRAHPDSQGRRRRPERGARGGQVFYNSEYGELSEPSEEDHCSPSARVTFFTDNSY

C=CC(=O)N(C)c1cc(Nc2ncc(Cl)c(NCCCNC(=O)c3ccc(F)cc3)n2)ccc1F [Example 23, N-(3-(5-chloro-2-(4-fluoro-3-(N-methylacrylamido)phenylamino)pyrimidinyl-4-amino)propyl)-4-fluorobenzamide]
IC50 (JAK2): 1920 nM
IC50 (Flt1): 1230 nM
JAK3 RV (ratio between the inhibitory rate of the test compound and that of Xeljanz) (JAK3 [1]): 0.88
inhibition at 0.03 µM (JAK3 [1]): 81%
IC50 (Flt4): 42 nM
IC50 (JAK1): 173 nM
IC50 (ITK): > 10000 nM
IC50 (JAK3 [2]): 11 nM

C=CC(=O)N(C)c1cc(Nc2ncc(Cl)c(NCCCNC(=O)c3ccc(C#N)cc3)n2)ccc1F [Example 7, N-(3-(5-chloro-2-(4-fluoro-3-(N-methylacrylamido)phenylamino)pyrimidinyl-4-amino)propyl)-4-cyano-benzamide]
IC50 (JAK2): 1400 nM
IC50 (Flt1): 698 nM
JAK3 RV (ratio between the inhibitory rate of the test compound and that of Xeljanz) (JAK3 [1]): 0.84
inhibition at 0.03 µM (JAK3 [1]): 63%
IC50 (Flt4): 107 nM
IC50 (JAK1): 105 nM
IC50 (ITK): 319 nM
IC50 (JAK3 [2]): 11 nM

C=CC(=O)N(C)c1cc(Nc2ncc(Cl)c(NCCCNC(=O)c3ccc(C(F)(F)F)cc3)n2)ccc1F [Example 22, N-(3-(5-chloro-2-(4-fluoro-3-(N-methylacrylamido)phenylamino)pyrimidinyl-4-amino)propyl)-4-trifluoromethylbenzamide]
IC50 (JAK2): > 10000 nM
IC50 (Flt1): > 10000 nM
JAK3 RV (ratio between the inhibitory rate of the test compound and that of Xeljanz) (JAK3 [1]): 0.82
inhibition at 0.03 µM (JAK3 [1]): 75%
IC50 (Flt4): > 10000 nM
IC50 (JAK1): 279 nM
IC50 (ITK): > 10000 nM
IC50 (JAK3 [2]): 21 nM
